{"source": "patent US20210032291A1", "about": "“Compstatin Analogs With Improved Pharmacokinetic Properties” (The Trustees of the University of Pennsylvania, priority 2011, published 2021)", "key": {"[1]": {"system": "classical pathway of complement", "experiment": "ELISA inhibition of classical pathway complement activation", "type": "biochemical", "conditions": "read-out: IC50, peptide concentration to reach 50% inhibition of classical pathway complement activation; Table 1", "method": "Inhibition of complement activation. The ability of the compstatin analogs to inhibit the activation of the classical pathway of complement was assessed by ELISA as described elsewhere (Katragadda et al., 2006, supra; Mallik et al., 2005, supra). The percent inhibition was plotted against the peptide concentration, and the resulting data set was fitted to the logistic dose-response function using Origin 8.0 software. IC50 values were obtained from the fitted parameters that produced the lowest χ2 value. Each analog was assayed at least three times."}, "in vitro": {"experiment": "in vitro", "conditions": "human, plasma", "quoted_text": "(§5) Plasma stability. Fresh human plasma containing lepirudin (3.75 units/ml) was incubated at 37° C. with Cp30 (SEQ ID NO:7), Cp40 (SEQ ID NO:18) or control peptide 2B at a final concentration of 20 μM each. Samples of 100 μL were taken for solid phase extraction. A 96-well plate HLB Oasis 30 μm 10 mg (Waters, Milford, Mass.) was employed for extraction. The SPE material was conditioned by addition of 500 μL each of methanol and ACN followed by addition of 500 μL of milli-Q water. Sample was diluted 1:1 with 4% H3PO4. After loading the sample, washing was carried out twice with 500 μL of 10% ACN in 0.1% formic acid. Sample was eluted with 200 μL of 65% ACN in 0.1% formic acid and collected in the Eppendorf LoBind collection plate. Sample for UPLC-MS was diluted 1:10 in milli-Q water with 0.1% formic acid. Cp20 (SEQ ID NO:3) was spiked in each sample before SPE as an internal standard.\n(§6) UPLC-MS analysis. UPLC-MS analysis was performed on a SYNAPT HDMS (Waters, Milford, Mass.) equipped with an ESI source controlled by MassLynx 4.1 software (Waters). Each sample was injected in quadruplicates. An online ACQUITY UPLC (Waters) system was used for peptide separation by reversed-phase liquid chromatography. The capillary voltage was 3.2 kV, the cone voltage was 30 V and the source temperature was 120° C. [Glu1]-fibrinogen peptide was used for lock-mass correction with a sampling rate of 30 s. […]"}, "in vivo [2]": {"experiment": "in vivo", "parameters": "species or system baboon", "conditions": "2 mg/kg", "method": "(§1) A juvenile baboon was injected intramuscularly with 2 mg/kg Cp40 (SEQ ID NO:18) Blood samples for the LC-MS/MS assay were collected in 1-ml plastic tubes containing 50 μg lepirudin, and centrifuged at 2000 g for 20 min at 4° C. for plasma separation. Plasma samples were stored at −70° C. Blood samples were collected at pre-determined time intervals after injection of the analog. Samples were treated with SPE and analyzed using LC-MS/MS. Calibration curves were created using standard peptides at various concentrations in plasma to determine peptide concentration in each sample.\n(§2) Extraction of compstatin analog from plasma samples and LC-MS/MS analysis were performed as described in Example 7. A hemolytic assay was performed as described in Example 5."}, "[3]": {"system": "complement activation via the alternative pathway", "experiment": "Erythrocyte hemolytic assay on plasma samples of treated cynomolgus monkeys", "type": "in vivo, cynomolgus monkeys (Macaca fascicularis)", "conditions": "subcutaneous injection 2 mg/kg", "method": "(§3) Hemolytic assay. Rabbit erythrocytes were washed with phosphate-buffered saline (PBS) followed by washing with Veronal-buffered saline (VBS)^Mg+/EGTA. A 1:20 dilution was prepared in VBS buffer. Plasma samples (1:10 in VBS−100 μl) was incubated with the rabbit erythrocytes solution (50 μl) in a 96-well plate at 37° C. for 1 h. EDTA (0.2 mM-15μl) was added to stop the reaction and plate was centrifuged (2500×g 3 min). Supernatant (100μl) was transferred to a new well and optical density was measured at 405 nm. Incubation of erythrocytes with water or buffer was used as positive (100% lysis) and negative (0% lysis) control, respectively.\n(§4) Analyses. Analysis of plasma samples, determination of plasma half-life and complement inhibitory activity in plasma were performed as described in Example 5."}, "[4]": {"system": "complement activation via the alternative pathway", "experiment": "Erythrocyte hemolytic assay on plasma samples of treated baboon", "type": "in vivo", "conditions": "intramuscular injection 2 mg/kg", "method": "as §3, §2"}, "[5]": {"experiment": "Solubility in WFI and DPBS; UPLC C18 retention time as hydrophobicity", "conditions": "for Hydrophobicity Retention Time: UPLC analysis on a C18 column; for solubility at 5 min: pH 7.4", "quoted_text": "(§7) Approximately 5 mg of each peptide (acetate form) was weighed out into separate LoBind Eppendorf tubes and 50 μL water for injection (WFI) was added to each tube. Each sample was centrifuged at 13000 rpm for 2 min and diluted for measuring the optical density (OD) at 280 nm using a NanoDrop 2000 spectrophotometer (ThermoScientific, Wilmington, Del.). Each concentrated sample was diluted 1:20 into Dulbecco's phosphate buffered saline (DPBS, without potassium and calcium; Invitrogen, Carlsbad, Calif.). The samples were monitored for precipitation, and each sample was vortexed for 5 min and centrifuged at 13000 rpm for 2 min. The OD of each DPBS supernatant was measured to determine peptide concentration at saturation.\n(§8) In addition, the ultra performance liquid chromatography (UPLC) retention time of these peptides on a C18 column was measured to reflect their apparent relative hydrophobicity (Table 3)."}, "in vivo [6]": {"experiment": "in vivo", "parameters": "species or system cynomolgus monkeys (Macaca fascicularis)", "conditions": "cynomolgus monkey", "method": "Primate studies and sample collection. […] Two healthy animals were used for each route of administration. The animals were sedated and injected subcutaneously with 2 mg/kg of the compound or orally by intragastric gavage with 4 mg/kg of the compound.\nas §4"}, "C3b [7]": {"target": "T1, C3b (Homo sapiens, UniProt P01024)", "T1 construct": "Biotinylated C3b was captured site-specifically on a streptavidin chip", "T1 sequence (P01024 23-667 limits assumed)": "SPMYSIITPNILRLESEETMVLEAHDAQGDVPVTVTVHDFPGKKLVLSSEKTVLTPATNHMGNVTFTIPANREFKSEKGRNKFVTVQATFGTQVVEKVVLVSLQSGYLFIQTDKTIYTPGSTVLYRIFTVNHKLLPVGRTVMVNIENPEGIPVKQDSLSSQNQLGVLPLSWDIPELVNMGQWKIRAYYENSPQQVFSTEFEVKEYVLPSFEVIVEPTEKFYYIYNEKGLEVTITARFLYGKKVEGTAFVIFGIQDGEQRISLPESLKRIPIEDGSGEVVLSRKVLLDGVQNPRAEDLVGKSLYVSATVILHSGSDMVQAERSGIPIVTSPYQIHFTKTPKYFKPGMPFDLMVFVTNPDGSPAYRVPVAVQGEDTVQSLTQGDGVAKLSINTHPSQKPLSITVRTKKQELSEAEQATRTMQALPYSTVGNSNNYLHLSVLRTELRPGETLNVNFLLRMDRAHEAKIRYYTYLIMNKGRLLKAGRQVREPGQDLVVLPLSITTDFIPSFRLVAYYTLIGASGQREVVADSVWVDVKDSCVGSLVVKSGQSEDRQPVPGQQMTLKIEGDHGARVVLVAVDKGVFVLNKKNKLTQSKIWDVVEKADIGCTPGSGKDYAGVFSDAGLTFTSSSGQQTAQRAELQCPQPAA", "T1 sequence (P01024 749-1663 partner limits assumed)": "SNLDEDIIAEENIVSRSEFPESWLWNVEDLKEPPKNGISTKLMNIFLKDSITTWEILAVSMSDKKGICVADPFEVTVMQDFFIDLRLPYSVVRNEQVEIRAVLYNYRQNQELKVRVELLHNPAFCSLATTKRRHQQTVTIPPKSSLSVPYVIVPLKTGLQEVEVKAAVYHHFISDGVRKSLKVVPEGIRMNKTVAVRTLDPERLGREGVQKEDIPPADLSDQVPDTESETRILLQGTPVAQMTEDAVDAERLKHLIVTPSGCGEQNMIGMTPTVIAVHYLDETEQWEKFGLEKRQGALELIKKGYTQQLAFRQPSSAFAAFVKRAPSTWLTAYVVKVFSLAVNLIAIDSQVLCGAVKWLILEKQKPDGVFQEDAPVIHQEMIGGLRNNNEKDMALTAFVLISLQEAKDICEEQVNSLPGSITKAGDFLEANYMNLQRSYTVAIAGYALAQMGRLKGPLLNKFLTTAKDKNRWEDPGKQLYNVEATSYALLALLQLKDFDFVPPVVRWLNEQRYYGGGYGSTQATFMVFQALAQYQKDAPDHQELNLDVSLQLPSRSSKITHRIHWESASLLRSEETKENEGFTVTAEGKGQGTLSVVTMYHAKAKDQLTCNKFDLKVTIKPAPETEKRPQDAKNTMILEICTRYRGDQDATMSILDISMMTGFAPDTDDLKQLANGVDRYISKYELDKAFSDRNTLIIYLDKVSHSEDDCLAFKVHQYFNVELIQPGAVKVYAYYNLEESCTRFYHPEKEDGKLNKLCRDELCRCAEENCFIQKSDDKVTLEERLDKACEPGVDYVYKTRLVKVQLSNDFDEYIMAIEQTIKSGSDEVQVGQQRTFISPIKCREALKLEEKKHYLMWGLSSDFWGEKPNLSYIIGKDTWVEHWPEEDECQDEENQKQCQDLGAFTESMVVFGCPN", "experiment": "SPR kinetic analysis of binding to immobilized C3b (Biacore, single cycle kinetics)", "method": "SPR analysis. The interaction of the compstatin analogs with C3b was characterized using a Biacore 3000 instrument (GE Healthcare, Corp., Piscataway, N.J.). The running buffer was PBS, pH 7.4 (10 mM sodium phosphate, 150 mM NaCl) with 0.005% Tween-20. Biotinylated C3b was captured site-specifically on a streptavidin chip at about 3000 and 5000 RU density; two untreated flow cells were used as reference surface. For kinetic analysis, sets of five increasing concentrations of a particular compound were injected over the chip surface one after the other in a single cycle. […] Processed biosensor data were globally fitted to a 1:1 Langmuir binding model (kindly provided by GE Helthcare), and the equilibrium dissociation constant (KD) was calculated from the equation KD=kd/ka. Each assay was performed at least twice."}, "in vivo [8]": {"experiment": "in vivo", "conditions": "cynomolgus monkey, iv, 2 mg/kg", "quoted_text": "(§9) Primate studies and sample collection. Evaluation of plasma half-life and generation of major metabolites was performed at the Simian Conservation Breeding and Research Center (SICONBREC, Makati City, Philippines) in cynomolgus monkeys (Macaca fascicularis). […] Blood samples (1-2 mL) were collected immediately before and at various time points after compound injection (2, 5 and 30 min; 1, 2, 4, 6, and 24 hours) in EDTA-coated Vacutainer tubes to prevent coagulation and complement activation, and centrifuged at ˜800×g for 10 min to obtain plasma. Plasma samples were immediately frozen and stored for further analysis. All NHP studies were performed in accordance with animal welfare laws and regulations.\n(§10) Analysis of plasma samples. Prior to analysis by UPLC-MS, compstatin analogs in the plasma samples were extracted by solid phase extraction (SPE) in a 96-well plate format (HLB Oasis 30 μm, 10 mg; Waters, Milford, Mass.). […] Eluted peptides were directly analyzed by HDMS; the ESI source capillary voltage was set to 3.2 kV, the cone voltage to 30 V and the source temperature to 120° C. […]\n(§11) Determination of plasma half-life. […] All calibration samples were subjected to SPE and measured using UPLC-HDMS as described above. […] For the pharmacokinetic analysis, the plasma concentration (Cp) at each time point was calculated from the extracted peak area of each peptide using the corresponding standard curve."}, "[9]": {"conditions": "5 min, pH 7.4", "quoted_text": "as §7, §8"}, "C3": {"target": "T2, C3 (Homo sapiens, UniProt P01024)", "T2 construct": "from tissue; host or cells: fresh human plasma (lepirudin-anticoagulated)", "T2 sequence (P01024 23-1663)": "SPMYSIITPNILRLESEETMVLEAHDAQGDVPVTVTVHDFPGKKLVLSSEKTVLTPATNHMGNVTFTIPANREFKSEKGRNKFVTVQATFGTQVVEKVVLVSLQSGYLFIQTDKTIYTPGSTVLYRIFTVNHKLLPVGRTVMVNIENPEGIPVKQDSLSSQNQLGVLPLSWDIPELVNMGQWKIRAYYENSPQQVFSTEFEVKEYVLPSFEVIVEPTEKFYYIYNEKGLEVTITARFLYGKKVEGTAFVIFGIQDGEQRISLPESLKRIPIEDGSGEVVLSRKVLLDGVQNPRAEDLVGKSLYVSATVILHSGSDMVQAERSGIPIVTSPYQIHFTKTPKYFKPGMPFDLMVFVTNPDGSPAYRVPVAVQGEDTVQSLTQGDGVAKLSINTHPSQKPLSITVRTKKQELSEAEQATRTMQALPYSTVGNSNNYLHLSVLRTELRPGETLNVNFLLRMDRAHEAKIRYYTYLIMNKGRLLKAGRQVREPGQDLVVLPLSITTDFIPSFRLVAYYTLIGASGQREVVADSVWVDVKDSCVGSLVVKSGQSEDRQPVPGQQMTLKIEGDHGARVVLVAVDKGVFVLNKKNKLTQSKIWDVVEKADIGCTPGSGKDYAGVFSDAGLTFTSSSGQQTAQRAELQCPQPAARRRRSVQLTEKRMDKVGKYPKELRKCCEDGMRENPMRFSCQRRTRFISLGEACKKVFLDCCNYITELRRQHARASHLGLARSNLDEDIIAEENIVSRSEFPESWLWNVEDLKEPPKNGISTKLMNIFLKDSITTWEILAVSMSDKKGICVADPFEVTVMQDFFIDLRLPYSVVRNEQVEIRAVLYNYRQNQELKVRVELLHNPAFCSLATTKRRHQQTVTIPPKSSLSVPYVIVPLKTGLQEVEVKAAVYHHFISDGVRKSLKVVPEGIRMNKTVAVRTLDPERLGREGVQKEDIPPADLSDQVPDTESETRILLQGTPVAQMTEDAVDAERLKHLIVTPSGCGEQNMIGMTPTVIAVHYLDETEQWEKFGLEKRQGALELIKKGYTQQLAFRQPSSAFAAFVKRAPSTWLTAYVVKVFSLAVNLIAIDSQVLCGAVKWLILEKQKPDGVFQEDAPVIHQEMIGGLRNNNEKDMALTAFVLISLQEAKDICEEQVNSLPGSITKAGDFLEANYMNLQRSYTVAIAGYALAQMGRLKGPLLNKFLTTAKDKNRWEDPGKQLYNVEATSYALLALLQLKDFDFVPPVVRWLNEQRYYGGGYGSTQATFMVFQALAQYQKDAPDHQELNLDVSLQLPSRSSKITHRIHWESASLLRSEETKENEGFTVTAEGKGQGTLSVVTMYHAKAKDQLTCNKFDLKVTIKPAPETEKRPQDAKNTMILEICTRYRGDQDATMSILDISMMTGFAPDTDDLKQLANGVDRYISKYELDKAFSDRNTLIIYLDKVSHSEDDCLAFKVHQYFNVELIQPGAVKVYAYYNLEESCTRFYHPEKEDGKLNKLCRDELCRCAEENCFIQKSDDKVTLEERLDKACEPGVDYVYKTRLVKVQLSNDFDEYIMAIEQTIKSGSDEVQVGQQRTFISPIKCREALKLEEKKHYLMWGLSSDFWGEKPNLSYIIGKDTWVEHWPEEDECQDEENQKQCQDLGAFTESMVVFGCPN", "experiment": "Plasma protein binding in human plasma (PEG precipitation, Mono Q FPLC, UPLC-MS)", "type": "in vitro ADME", "conditions": "20 μM peptide, Mono Q fractions", "method": "Plasma protein binding. Cp30 (SEQ ID NO:7) was spiked in 500 μL of fresh human plasma containing lepirudin (3.75 units/nil) so that the final peptide concentration was 20 μM (C3: 1.2 mg/mL, 6.4 μm). A control sample was prepared in the same way using Cp30 (SEQ ID NO:7) and milli-Q water to determine the area of peptide in UPLC-MS at 1 μM. The plasma sample was equilibrated at room temperature for 10 min. Then, 500 μL of 30% PEG in milli-Q water (MW3350) was slowly added to the plasma sample while mixing. The mixture was centrifuged at 14000 rpm for 10 min to separate the supernatant. The pellet was dissolved in 1000 μL of FPLC buffer A and separated by FPLC using Mono Q 5/5 column and fractions was collected at 1 mL per tube. 0.5 mL of each fraction was mixed with same volume off 4% H3PO4 for SPE and UPLC-MS analysis.\nUPLC-MS analysis. […] Each sample was injected in quadruplicates. […] The analytical column temperature was held at 40° C."}, "[10]": {"experiment": "Plasma levels and half-life after i.v. injection in cynomolgus monkeys", "conditions": "2 mg/kg i.v., terminal log-linear portion (1-24 h)", "quoted_text": "as §9, §10, §11"}, "in vivo [11]": {"experiment": "in vivo", "parameters": "species or system baboons (P. Anubis)", "conditions": "baboon (P. Anubis), iv, 10 mg", "method": "as §1, with “Juvenile baboons (P. Anubis, Baboon Research Resources, University of Oklahoma) weighing 5-8 kg were used. Two baboons were used for the study, one for each compound. Each animal received a bolus dose of peptide (10 mg) by injection through the peripheral vein.” for “A juvenile baboon was injected intramuscularly with 2 mg/kg Cp40 (SEQ ID NO:18)”, “[…]” for “50 μg”, “of Cp30 (SEQ ID NO:7) or” for “of”, “Cp30 (SEQ ID NO:7)-ABM2 conjugate.” for “analog.”\nExtraction of compstatin analogs from plasma samples by SPE. […] Samples were diluted with 4% H3PO4. After loading a sample, washing was carried out with 500 μL of water and 10% ACN with 0.1% formic acid. […] Samples for LC-MS were diluted 1:2 to 1:11 in milli-Q water with 10% ACN with 0.1% formic acid.\nLC-MS/MS analysis. […] Each sample was injected in triplicate. […] The analytical column temperature was held at 40° C. Peptides were separated at flow rate 0.15 mL/min. The gradient was linear 15-55% B (0.1% formic acid in acetonitrile) over 7 min."}, "[12]": {"experiment": "Stability in human plasma at 37° C. (SPE, UPLC-MS)", "conditions": "fresh human plasma", "quoted_text": "as §5, §6"}, "C3b [13]": {"target": "T1, C3b", "conditions": "value from previous publication (WO2010/127336), cited from earlier work"}}, "note": "Like-named read-outs stand apart in the source and are kept apart here."}
{"molecule": "CC[C@H](C)[C@H](NC(=O)[C@H](N)Cc1ccc(O)cc1)C(=O)N[C@H]1CSSC[C@@H](C(=O)N(C)[C@H](C(N)=O)[C@@H](C)CC)NC(=O)[C@H](CCCNC(=N)N)NC(=O)[C@H](Cc2c[nH]cn2)NC(=O)[C@H](C)NC(=O)CN(C)C(=O)[C@H](Cc2c[nH]c3ccccc23)NC(=O)[C@H](CC(=O)O)NC(=O)[C@H](CCC(N)=O)NC(=O)[C@H](Cc2cn(C)c3ccccc23)NC(=O)[C@H](C(C)C)NC1=O", "note": "[peptide 14, dTyr-Ile-[Cys-Val-Trp(Me)-Gln-Asp-Trp-Sar-Ala-His-Arg-Cys]-mIle-NH2]", "values": [{"measurement": "IC50", "setting": "[1]", "result": "66 ± 8", "unit": "nM"}, {"measurement": "remaining at 120 h, 20 μM", "setting": "in vitro", "result": "> 55", "unit": "%"}, {"measurement": "Time to peak plasma concentration", "setting": "in vivo [2]", "result": "5 to 6", "unit": "h"}, {"measurement": "Cmax", "setting": "in vivo [2]; monkey, im", "result": "~10", "unit": "µM"}, {"measurement": "Complement inhibitory activity versus analog concentration in plasma samples", "setting": "[3]", "result": "closely track the concentration of analog"}, {"measurement": "Complement inhibitory activity versus analog concentration in plasma samples", "setting": "[4]", "result": "closely track the concentration of analog"}, {"measurement": "Hydrophobicity Retention Time", "setting": "[5]", "result": 4.73, "unit": "min"}, {"measurement": "solubility", "setting": "physchem", "result": "> 50000", "unit": "µg/mL"}, {"measurement": "solubility at 5 min", "setting": "physchem; pH 7.4", "result": 800, "unit": "µg/mL"}, {"measurement": "Time to reach the stated plasma concentration", "setting": "in vivo [6]; po, 4 mg/kg", "result": "within one hour"}, {"measurement": "level at time molar", "setting": "in vivo [6]; po, 4 mg/kg", "result": "~0.023", "unit": "µM"}, {"measurement": "Cmax", "setting": "in vivo [6]; sc, 2 mg/kg", "result": "~12.5", "unit": "µM"}, {"measurement": "Time to peak plasma concentration", "setting": "in vivo [6]; sc, 2 mg/kg", "result": "4 to 5", "unit": "h"}, {"measurement": "ka: association rate", "setting": "C3b [7]; Table 1, N-terminal analogs", "result": "2.8 ± 0.5 10^6/Ms"}, {"measurement": "ka: association rate", "setting": "C3b [7]; Table 2, Cp40-based analogs", "result": "2.8 ± 0.6 10^6/Ms"}, {"measurement": "Cmax", "setting": "in vivo [8]", "result": "~28", "unit": "µM"}, {"measurement": "Solubility DPBS pH7.4", "setting": "[9]", "result": 0.8, "unit": "mg/mL"}]}
{"molecule": "CC[C@H](C)[C@H](NC(=O)CNC)C(=O)N[C@H]1CSSC[C@@H](C(=O)N(C)[C@H](C(N)=O)[C@@H](C)CC)NC(=O)[C@H](CCCNC(=N)N)NC(=O)[C@H](Cc2c[nH]cn2)NC(=O)[C@H](C)NC(=O)CN(C)C(=O)[C@H](Cc2c[nH]c3ccccc23)NC(=O)[C@H](CC(=O)O)NC(=O)[C@H](CCC(N)=O)NC(=O)[C@H](Cc2cn(C)c3ccccc23)NC(=O)[C@H](C(C)C)NC1=O", "note": "[peptide 3, Sar-Ile-[Cys-Val-Trp(Me)-Gln-Asp-Trp-Sar-Ala-His-Arg-Cys]-mIle-NH2]", "values": [{"measurement": "IC50", "setting": "[1]", "result": "82 ± 14", "unit": "nM"}, {"measurement": "Fraction of peptide co-eluted with C3", "setting": "C3", "result": 88.0, "unit": "%"}, {"measurement": "Fraction of peptide co-eluted with C3c", "setting": "C3", "result": 4.5, "unit": "%"}, {"measurement": "Fraction of peptide located in the flow-through", "setting": "C3", "result": 7.5, "unit": "%"}, {"measurement": "solubility at 5 min", "setting": "[5]; Dulbecco's phosphate buffered saline", "result": 6900, "unit": "µg/mL"}, {"measurement": "Hydrophobicity Retention Time", "setting": "[5]", "result": 4.60, "unit": "min"}, {"measurement": "solubility", "setting": "[5]; water for injection", "result": "> 50000", "unit": "µg/mL"}, {"measurement": "Plasma half-life", "setting": "[10]", "result": 10.1, "unit": "h"}, {"measurement": "ka: association rate", "setting": "C3b [7]; Table 1, N-terminal analogs", "result": "1.9 ± 0.5 10^6/Ms"}, {"measurement": "Kd", "setting": "C3b [7]; Table 1, N-terminal analogs, read-out: KD: binding constant from SPR", "result": 1.6, "unit": "nM"}, {"measurement": "koff", "setting": "C3b [7]; Table 1, N-terminal analogs, read-out: kd: dissociation rate", "result": "0.0029 ± 0.0003", "unit": "s⁻¹"}, {"measurement": "half-life", "setting": "in vivo [11]", "result": 5, "unit": "h"}, {"measurement": "remaining at 120 h, 20 μM", "setting": "[12]", "result": "> 55", "unit": "%"}]}
{"molecule": "CC[C@H](C)[C@H](NC(C)=O)C(=O)N[C@H]1CSSC[C@@H](C(=O)N(C)[C@H](C(N)=O)[C@@H](C)CC)NC(=O)[C@H](CCCNC(=N)N)NC(=O)[C@H](Cc2c[nH]cn2)NC(=O)[C@H](C)NC(=O)CN(C)C(=O)[C@H](Cc2c[nH]c3ccccc23)NC(=O)[C@H](CC(=O)O)NC(=O)[C@H](CCC(N)=O)NC(=O)[C@H](Cc2cn(C)c3ccccc23)NC(=O)[C@H](C(C)C)NC1=O", "note": "[Cp20, reference compound]", "values": [{"measurement": "solubility at 5 min", "setting": "[5]; Dulbecco's phosphate buffered saline (DPBS)", "result": 2700, "unit": "µg/mL"}, {"measurement": "Hydrophobicity Retention Time", "setting": "[5]", "result": 5.33, "unit": "min"}, {"measurement": "Solubility WFI", "setting": "[5]; water for injection, OD (280 nm) at saturation, acetate form", "result": 13000, "unit": "µg/mL"}, {"measurement": "ka: association rate", "setting": "C3b [13]", "result": "1.9 10^6/Ms"}, {"measurement": "kd: dissociation rate", "setting": "C3b [13]", "result": "4.0 10^−3/s"}, {"measurement": "Kd", "setting": "C3b [13]; read-out: KD: binding constant from SPR", "result": 2.4, "unit": "nM"}]}
